What was measured:
[1] = Zn^2+ complexation; cited from earlier work
apoptotic liver = assay: Biodistribution after induction of hepatic apoptosis with Cycloheximid; format: in vivo, male Balb/c mice; conditions: i.v., 3.5 h after induction of hepatic apoptosis
Procedure: The biodistribution was performed in male Balb/c mice (6-8 weeks, body weight approx. 20 g). Hepatic apoptosis were induced by intraperitoneal injection of Cycloheximid ([…] in 500 μL PBS) (J. F. Tait, C. Smith, Z. Levashova, B. Patel, F. G. Blankenberg, J. Vanderheyden, J. Nucl. Med. 2006, 47, 1546). 1.5 h and 3.5 h after induction of hepatic apoptosis the 18F-labeled compound was injected i.v. (1-2 MBq in 100 μL PBS). The organ distribution was done after 30 min, 1 h, 2 h and 3 h. The amount of 18F-compound was determined by gamma counter.

[2] = system: adenocarcinoma (Prostata) R3327-ATI; assay: PET imaging in radiation tumor model; format: in vivo, Male Copenhagen rats; conditions: day 6 and day 10 after 50 Gy radiation, i.v.
Description: The PET images were obtained using a radiation model. Male Copenhagen rats with approx. 180 g body weight were transplanted with the hormone independent adenocarcinoma (Prostata) R3327-ATI on the left and right upper leg. The left tumor, as it reached a size of 3.5 cm^3 was radiated by linear particle accelerator with a single dosis of 50 Gy, whereas the right tumor served as control.
One day prior to the radiation as well as 6 and 10 d after radiation, the 18F-compound 19 (15-25 MBq in ca. 200 μL PBS) was injected i.v. and PET-aquisition with 1 h dynamic PET measurements were performed.

[3] = system: staurosporine treated Jurkat cells; assay: FACS flow cytometry, apoptosis detection on staurosporine treated Jurkat cells with propidium iodide discrimination; format: cell-based; conditions: for labeling pattern in direct comparison with Annexin-V: apoptosis induced Jurkat cells, co-incubation, FIG. 10
Description: Flow cytometry is a technology for counting and examining cells which pass in a flow of single cells through a laser beam. The laser light scatter provides information about cell features. The forward scatter (FSC) depends basically on the size of the cell, whereas the side scatter (SSC) is used to measure the granularity of the cell. Furthermore, if the cells carry fluorescence dyes, the respective fluorescence signal can be detected.
Flow cytometry is a widely applied technique in cell biology. Especially in the research of cell death mechanisms it is a standard procedure to count and differentiate between apoptotic, necrotic and healthy cells. For the detection of apoptosis the protein Annexin V is applied which is usually attached to a green fluorescence dye. Because Annexin V can also bind to necrotic cells, the red fluorescent nuclear stain propidium iodide is simultaneously applied as a necrosis marker.
The resulting fluorescence diagrams that are obtained from a flow cytometry procedure with Annexin V and propidium iodide are shown below. The detection channel for green fluorescence is termed FL-I (FIG. 4), the one for red fluorescence FL-III (FIG. 4). The plot of cell number (counts) versus FL-I intensity is called histogram. The fluorescence signal of the sample is always accompanied by a second signal at low intensities (left in the histogram) which is background fluorescence. By plotting the red fluorescence versus the green fluorescence (FL-I/FL-III-plot) a diagram is obtained in which the cells can be divided into red, green and red+green fluorescent cells. After gating the signals into four quadrant regions (Q1-Q4) (FIG. 4), the percentages of the differently stained cells is indicated in the diagram.
FACS measurements were performed with a DAKO Galaxy Flow Cytometry System using the following experimental setup: Jurkat-cells were grown to a density of about 1*10^6 cells/ml. Apoptosis was induced by adding 1 μmol/l staurosporine (Stepczynska A et al, Staurosporine and conventional anticancer drugs induce overlapping, yet distinct pathways of apoptosis and caspase activation, Oncogene (2001) 20, 1193). After incubation for 4 h at 37° C., the cells were washed with cold PBS-buffer (140 mmol/l NaCl, 10 mmol/l KCl, 6.4 mmol/l Na2HPO4, 2 mmol/l KH2PO4) and resuspended in cold TES-buffer (5 mmol/l TES, 145 mmol/l NaCl). 10^6 cells in 100 μl buffer with 1 μl of a 0.5 mmol/l aqueous solution of complex 1 were incubated for 15 minutes at 37° C. Subsequently, cells were washed twice with 500 μl TES-buffer and the cells were resuspended in 400 μl TES-buffer. 100 μl of the probe were diluted with 900 μl of buffer and measured immediately. To discriminate against necroses, 10 μl propidiumiodide solution (250 μg/ml) were added directly before the measurement.

[4] = system: Jurkat cells induced with staurosporin; assay: Confocal microscopy on apoptosis induced Jurkat cells; format: cell-based; conditions: 5 μM compound, 15 min at RT
Procedure: In order to verify the FACS data with visual data confocal microscopy was performed. Confocal microscopy was also performed on Jurkat cells and apoptosis was induced by incubating 10^6 cells/ml in 1 μM staurosporin for 4 h (Stepczynska A et al, Staurosporine and conventional anticancer drugs induce overlapping, yet distinct pathways of apoptosis and caspase activation Oncogene (2001) 20, 1193). The experiments were also carried out in TES-buffer. For compound binding 10^6 cells (either induced with staurosporin or non-induced) were incubated for 15 min at RT in 100 μl cold TES buffer with a final concentration of 5 μM compound, then the cells were fixed onto polylysine coated slides and shortly incubated with propidium iodine (PI).

[5] = system: cells which expose phosphatidylserine; conditions: cited from earlier work

Compound: c1ccc(CNCc2ccccn2)nc1 [DPA, 2,2-dipicolylamine]
- stability constant [1]: 10^5 (mol/l)^−1

Compound: [18F]CCOc1cc(CN2CCNCCNCCNCC2)cc(CN2CCNCCNCCNCC2)c1 [compound 19]
- time the liver signal was stable (apoptotic liver): more than 3 h
- accumulation in the apoptotic liver (apoptotic liver; as early as 30 min after injection): accumulation in the apoptotic liver
- accumulation in irradiated tumor in comparison to the control tumor (PET) [2]: increase in accumulation

Compound: CCN(CC)c1ccc2c(-c3ccc(NC(=S)NCCOCCOCCOc4cc(CN5CCNCCNCCNCC5)cc(CN5CCNCCNCCNCC5)c4)cc3C(=O)O)c3ccc(=[N+](CC)CC)cc-3oc2c1 [compound AB]
- labeling pattern in direct comparison with Annexin-V [3]: labeling apoptotic cells in Q2 and necrotic cells in Q4
- uptake / labeling of cells in confocal microscopy [4]: labeling of apoptotic and necrotic cells

Compound: O=C(NCCOCCOCCOc1cc(COc2cc(CN3CCNCCNCCNCC3)cc(CN3CCNCCNCCNCC3)c2)cc(COc2cc(CN3CCNCCNCCNCC3)cc(CN3CCNCCNCCNCC3)c2)c1)c1ccc(-c2c3ccc(=O)cc-3oc3cc(O)ccc23)c(C(=O)O)c1 [compound we]
- median fluorescence intensity ([3]; induced apoptotic Jurkat cells, FIG. 11): 130
- effect of Zn^2+ complexation on binding ([3]; with versus without Zn^2+): same effect

Compound: Anx V: phosphatidylserine-binding protein, fluorescent dye labeled, standard apoptosis sensor
- labeling pattern in direct comparison with Annexin-V [3]: labels apoptotic cells in Q1 and Q2
- % apoptosis (green) ([3]; staurosporine treated Jurkat cells, green fluorescence only): 22%
- % necrosis (PI) (red) ([3]; staurosporine treated Jurkat cells, propidium iodide red only): 18%
- % necrosis/ late apoptosis (red + green) ([3]; staurosporine treated Jurkat cells, red + green): 25%
- uptake / labeling of cells in confocal microscopy [4]: green membrane staining
- Kd [5]: < 0.1 nM

From patent publication US20110177002A1, “CYLIC POLYAMINES FOR BINDING PHOSPHATIDYLSERINE” (BAYER SCHERING PHARMA AKTIENGESELLSCHAFT, priority 2008, published 2011)
